Entries after “also recorded” stand apart in the source; their conditions may differ.

In one series the test system is CREM. The series is described as follows: CREM expression in X-ray irradiated testis. Format: in vivo, mouse. The note with it: X-ray 2.5 Gy then injection, 12 hrs. The method, then: (§1) Toward this end, ICR mice (3 months old) were injected with 6 mg/kg of Compound 79, Compound 68 or Compound 70, or mice were subjected to X-ray radiation (2.5 Gy) followed by immediately injection of the respective compounds. Control mice were untreated or vehicle treated with or without exposure to X-ray radiation. The testes were removed 12 hrs after treatments and subjected to protein extracts or total RNA preparations for the examination of telomerase activity by TRAP assay, telomerase expression by Western blot and real time PCR. Testes were also taken for immunohistochemical and immunofluorescence analysis with various spermatogenesis markers. Epididymis was also taken for sperm count.

The subject of another series is mouse ovary. The series is described as follows: Hematoxylin-eosin histology of mouse ovary. Format: in vivo. The source says:
The ovaries were weighted; one was taken for protein extraction for measuring telomerase activity by TRAP assay, and the other one for the histological examination using hematoxylin-eosin staining of the ovary and its follicles.
The mice ovaries were removed and fixed with 4% paraformaldehyde overnight, dehydrated in increasing ethanol concentrations to xylene, and embedded in paraffin. A rotary microtome was used to produce 5 μm sections, which were mounted on Superfrost plus slides. The sections were dried and heated at 37° C. overnight and stored in dry place. Paraffin-embedded sections were deparaffinized in xylene and rehydrated in decreasing concentrations of ethanol. Then the sections stained with hematoxylin-eosin or subjected to immunochemical and Immunofluorescent assays [Liani-Leibson, K., I. Har-Vardi, and E. Priel, Inhibition of topoisomerase I by anti-cancer drug altered the endometrial cyclicity and receptivity. Curr Mol Med, 2014. 14(1): p. 141-50].

For the next series, the system named is FSH. The series is described as follows: FSH expression by RT-PCR in pituitary gland cells. Format: cell-based, mouse. The settings on record: 50 nM, 6 hours, vs untreated. The method, then: (§2) FIGS. 29A, 29B, 29C and 29D: The embodied compounds affect the expression of gonadotropin hormones in pituitary gland cells. Cells (L T2) derived from the mouse pituitary gland were assessed for their secretion of LH and FSH at 6 (FIGS. 29A and 29B) and 12 hours (FIGS. 29C and 29D) following treatment with the indicated embodied compounds (50 nM). FSH and LH expression was determined by RT-PCR, and quantified from 5 different experiments, as assessed for significance, using the t test, one way ANOVA.

A further series has as its system sperm. The series is described as follows: Sperm head morphology after X-ray radiation. The note with it: X-ray 2.5 Gy, single S.C. injection 6 mg/kg, 12 hours. Type of series: in vivo, mouse. The method, then:
Three-month old mice were irradiated with X-ray (2.5 Gy) and treated with a single S.C. injection of 6 mg/kg of compound 68 or 70. Mice were sacrificed 12 hours later and sperm were removed from the epididymis and stained with eosin. The number of morphologically defective sperm (head morphology) were quantified and presented as a percentage value of the total sperm count (N=6 mice per group) (FIG. 26A). FIG. 26B provides a light micrograph showing healthy and defective sperm head morphology observed. The arrows labeled 1 and 2 point to defective sperm head morphology, and the arrows labeled 3 and 4 point to healthy sperm head morphology

The test system of another series is ICR mice. The series is described as follows: Sperm count from the epididymis, with or without X-ray radiation. Type of series: in vivo, mouse. The method, then: Toward this end, ICR mice (3 months old) were injected with 6 mg/kg of Compound 79, Compound 68 or Compound 70, or mice were subjected to X-ray radiation (2.5 Gy) followed by immediately injection of the respective compounds. Control mice were untreated or vehicle treated with or without exposure to X-ray radiation. […] Testes were also taken for immunohistochemical and immunofluorescence analysis with various spermatogenesis markers. Epididymis was also taken for sperm count.

In the next series the test system is ovarian tissue. As to the kind of experiment: Ovarian tissue histopathology following irradiation. The note with it: treatment following X-ray irradiation. Type of series: in vivo. The text has this:
FIGS. 28A, 28B and 28C: Ovarian tissue histopathology following irradiation (FIG. 28A), followed by treatment with Compound 70 (FIG. 28C) or DMSO carrier (FIG. 28B).

In series [1] the test system is Steroidogenic acute regulatory protein (StAr). The series is described as follows: StAr relative mRNA levels by qRT-PCR in granulosa cells. Format: cell-based, rat. The note with it: 50 nM for 6 hours. The method, then:
(§3) Immortalized rat granulosa cells expressing FSH receptor were treated with either pregnant mare serum gonadotropin (PMSG), or the indicated compounds, or both for 6 hours. Protein extracts prepared from these cells served for telomerase activity measurement using a telomere repeat amplification protocol (TRAP) assay.
(§4) Briefly, protein extract incubated with oligonucleotide, which serves as a template for telomerase (TS), for 45 minutes at 30° C. followed by PCR with reverse primer (ACX) and internal control. PCR products were separated on 4.5% agarose gel. RNA extracts were used for cDNA synthesis and quantitative real time PCR with specific primers to Telomerase reverse transcriptase (TERT), Steroidogenic acute regulatory protein (StAr) and β-actin as a reference gene. To measure progesterone levels secreted by the cells, granulosa cells were cultured with or without 1 IU/mL PMSG and DMSO, Compound 79 50 nM or compound 70 50 nM in the presence of 100 nM dexamethasone. After 24 hours progesterone levels cell-culture medium were determined by radioimmunoassay (RIA). For cell proliferation measurement, 1×10^5 cells were seeded in a 96 wells plate with 1 IU/mL PMSG and DMSO, Compound 79 50 nM or Compound 70 50 nM. After 24 hours cells viability was measured by XTT proliferation assay.
On the technique in general: Real-time PCR tracks product formation cycle by cycle.

In another series the test system is LH. As to the kind of experiment: LH expression by RT-PCR in pituitary gland cells. Type of series: cell-based, mouse. The settings on record: 50 nM, 12 hours, vs untreated. The method, then:
as §2

The test system of another series is old mice (16 months old). The series is described as follows: Sperm count and motility in old mice. Format: in vivo, mouse. The settings on record: single injection 6 mg/Kg.
In the next series the test system is γ-H2AX. As to the kind of experiment: γ-H2AX immunofluorescence of testis. Type of series: in vivo, mouse. The settings on record: 12 hrs. The method, then:
as §1

For series [2], the system named is Telomerase reverse transcriptase (TERT). The series is described as follows: TERT relative mRNA levels by qRT-PCR in granulosa cells. Type of series: cell-based, rat. The note with it: 50 nM and 200 nM for 6 hours. The method, then: as §3, §4
The target in the next series is T1, telomerase (Rattus norvegicus, UniProt Q673L6).
T1 construct: Protein extracts prepared from these cells served for telomerase activity measurement; endogenous in cells; host or cells: immortalized rat granulosa cells expressing FSH receptor
T1 sequence (Q673L6 whole entry): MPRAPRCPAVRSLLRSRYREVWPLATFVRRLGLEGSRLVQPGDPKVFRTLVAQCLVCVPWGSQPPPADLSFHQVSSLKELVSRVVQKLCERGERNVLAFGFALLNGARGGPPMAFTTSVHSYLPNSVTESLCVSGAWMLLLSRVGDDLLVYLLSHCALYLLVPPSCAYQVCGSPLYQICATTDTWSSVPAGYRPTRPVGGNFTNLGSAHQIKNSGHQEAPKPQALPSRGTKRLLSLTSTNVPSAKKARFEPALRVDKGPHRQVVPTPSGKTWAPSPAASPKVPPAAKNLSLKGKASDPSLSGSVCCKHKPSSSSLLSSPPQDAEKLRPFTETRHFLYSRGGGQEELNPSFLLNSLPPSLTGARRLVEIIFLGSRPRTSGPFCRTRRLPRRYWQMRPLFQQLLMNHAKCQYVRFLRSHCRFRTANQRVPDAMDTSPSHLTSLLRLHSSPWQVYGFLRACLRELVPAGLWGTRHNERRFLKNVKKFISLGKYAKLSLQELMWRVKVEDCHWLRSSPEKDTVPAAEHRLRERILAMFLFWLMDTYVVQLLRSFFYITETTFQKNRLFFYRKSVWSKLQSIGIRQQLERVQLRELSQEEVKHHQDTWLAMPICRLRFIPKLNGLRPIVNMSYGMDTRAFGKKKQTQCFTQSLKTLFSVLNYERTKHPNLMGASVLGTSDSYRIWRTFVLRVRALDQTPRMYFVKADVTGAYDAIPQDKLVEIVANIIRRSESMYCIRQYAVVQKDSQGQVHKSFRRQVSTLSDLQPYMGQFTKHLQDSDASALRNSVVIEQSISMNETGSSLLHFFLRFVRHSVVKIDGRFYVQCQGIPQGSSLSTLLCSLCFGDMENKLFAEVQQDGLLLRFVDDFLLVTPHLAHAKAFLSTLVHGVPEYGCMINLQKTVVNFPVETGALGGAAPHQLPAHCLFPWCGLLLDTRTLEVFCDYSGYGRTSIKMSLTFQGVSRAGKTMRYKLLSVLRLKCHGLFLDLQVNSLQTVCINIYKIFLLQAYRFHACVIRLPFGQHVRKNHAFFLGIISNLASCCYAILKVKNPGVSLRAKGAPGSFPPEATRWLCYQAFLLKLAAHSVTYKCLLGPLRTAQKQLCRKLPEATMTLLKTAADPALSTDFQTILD
The series is described as follows: TRAP assay of telomerase activity in granulosa cells. Type of series: cell-based. The note with it: 50 nM and 200 nM for 6 hours. The method, then: as §3, §4

Regarding `COc1c(Br)cc(C(C)(c2cc(Br)c(OC)c(Br)c2)c2cc(Br)c(OC)c(Br)c2)cc1Br` [Compound 70], the “CREM expression in testis” value with CREM was “restored the expression of the spermatogenesis markers”. Also, the “ovary histology (follicles, granulosa cells)” value in the series on mouse ovary (6 mg/Kg single dose at met-estrus stage, 12 hours) is “more developed follicles (white arrow) and plurality of layers of granulosa cells (GC) around the oocytes”. Further, in the series on mouse ovary (6 mg/Kg single dose at pro-estrus and estrus stages, 12 hrs), the “ovary histology (corpus luteum)” value is reported as “more corpus luteum (CL) than in the control group”. Besides, the FSH expression result in the series with FSH was “decreased FSH expression relative to untreated samples”. Also, the “number of defective sperm cells (head morphology)” value in the series with sperm is on record as “reduction in the number of defective sperm cells”. Further, the sperm count result with ICR mice (irradiated mice, 9 and 30 days post irradiation) is “increased sperm count at 9 and 30 days post irradiation”. Also, the “sperm cells number from the epididymis” value in the series with ICR mice (non-irradiated mice, 12 hrs post treatment, compared to DMSO) is on record as “a significant increase”. In addition, the “ovarian tissue histopathology (H&E)” value in the series on ovarian tissue was “clearly rescues ovarian tissue exposed to radiation”. In series [1], the “expression of StAr” value is on record as “increased expression of StAr”. In addition, the LH expression result in the series on LH is “increased LH production above untreated levels”. Also, in the series on old mice (16 months old), the sperm counts entry was “increased” and the sperm motility entry is reported as “increased”. Further, the “DNA damage (γ-H2AX) in testis” value in the series on γ-H2AX (compound only, without irradiation) was “did not cause DNA damage”. The “expression levels of γ-H2AX in testis” value in the series with γ-H2AX (irradiated mice (2.5 Gy)) is recorded as “a decrease in the expression levels of γ-H2AX”. The “TERT relative mRNA levels” value in series [2] is “increased expression in a dose-dependent fashion”. Further, the “telomerase activity (TRAP)” value on telomerase is “increased expression in a dose-dependent fashion; also recorded: further increased telomerase activity and expression in granulosa cells as compared to compound 79”.

Source of the values: patent publication US12576047B2, “Telomerase activating compounds for use in fertility and related applications” (Neuromagen Pharma Ltd, priority 2017, dated 2026).
